Measured values as given in US20250040554A1, “NEW USES OF PHENMEDIPHAM AND HERBICIDAL COMBINATIONS COMPRISING PHENMEDIPHAM” (BAYER AKTIENGESELLSCHAFT, priority 2021, published 2025).

Experiments:
Format in all cases: in vivo
[1] = test system: BRADC=Brachiaria decumbens; assay: Weed control field trial BRADC
Source text: (§1) The respective (combinations of) materials were applied to weed plants in the greenhouse or in the field at the respective growth stage indicated hereinafter for the different weed species mentioned below. The respective (combinations of) active ingredients were also applied to corn, cotton and soybean crop plants, and the selectivity (damage) in these crop plants rated (assessed).
(§2) Visual scoring of the damage to the trial plants took place after the time mentioned in the respective Table—indicated in number of Days After Application (DAA). Damage and development of all above-ground parts of the respective plants was recorded. Visual rating was done on a percentage scale in relation to the untreated control (100%=all plants dead; 50%=green plant biomass reduced by 50%, and 0%=no discernible difference=like control plot).
(§3) The trials in the greenhouse were sprayed with an application volume of 300 L/ha with an automated track sprayer. The plots in the field were sprayed with an application volume of 140 L/ha with a hand held spray boom.
(§4) wherein • A, B=respective value in percent of active ingredient A at a dose rate of a g/ha, ingredient B at a dose rate of b g/ha • E^C=Expected value according to Colby (S. R. Colby; Weeds 15 (1967), 20-22) in % at a dose rate of a+b, each in g/ha • Δ=Difference (in %) between measured value E and expected value E^C (%) (measured value minus expected value)
(§5) The growth stages of the different weed species are indicated according to the BBCH monograph “Growth stages of mono- and dicotyledonous plants”, 2nd edition, 2001, ed. Uwe Meier, Federal Biological Research Centre for Agriculture and Forestry (Biologische Bundesanstalt für Land und Forstwirtschaft).
(§6) After the harmful plants had emerged, they were treated, at the respective growth stage indicated, with the respective materials as indicated at a water application rate of 140 L/ha.
(§7) After the treatment (21 or 35 days after application of the respective material), the herbicidal activity of respective material was scored visually at the same time by comparing the differently treated plots with the untreated control plots. The score figures of the different plots were averaged.
(§8) The dose rates of herbicidal ingredients used in each case are indicated for the respective active ingredient and refer to the amount of active ingredient per hectare (g/ha).
(§9) The weed control activity of different (combinations of) herbicidal active ingredients was investigated in field trials for the following weed species: • AMAVI=Amaranthus viridis • IPOAO=Ipomoea aristolochiaefolia • EPHHL=Euphorbia heterophylla • BIDPI=Bidens pilosa • BRADC=Brachiaria decumbens • ELEIN=Eleusine indica • CCHEC=Cenchrus echinatus
(§10) The growth stage of AMAVI was BBCH 13, the growth stage of IPOAO was BBCH 15, the growth stage of EPHHL was BBCH 13, the growth stage of BIDPI was BBCH 14, the growth stage of BRADC was BBCH 23, the growth stage of ELEIN was BBCH 11 and the growth stage of CCHEC was BBCH 12 at the time of application of the respective material.
(§11) Phenmedipham and Mesotrione were applied at varying application rates (Dose Rate) to the different species of weed plants. The results are shown in Tables 3a to 3e as the % control when assessed 21 and 35 days after application (DAA), respectively.
(§12) In all the trials of Tables 3a to 3e Mero® (rapeseed oil methyl ester) was added to the respective spray mixture in an amount corresponding to 1 L/ha for PMP, 1 L/ha for MST, and 2 L/ha for mixtures of PMP+MST.

[2] = test system: ECHCG=Echinochloa crus-galli; assay: Greenhouse weed control trial ECHCG; settings: 25 DAA
Source text: as §1, §2, §3
In greenhouse selectivity trials and trials herbicidal activity trials against weed plants were investigated in post-emergence application of the respective material(s).
Herbicidal activity against different weeds (undesired plants) was calculated as follows.
as §4
• measured value E is greater than E^C:->synergism (+Δ) • measured value E is equal to E^C:->additive effect • measured value E is smaller than E^C:->antagonism (−Δ)
The weed control activity of different (combinations of) materials was investigated in greenhouse trials for the following weed species: • STEME=Stellaria media • ECHCG=Echinochloa crus-galli • BROTE=Bromus tectorum
Phenmedipham amd Mesotrione were applied at varying application rates (Dose Rate) to the weed plant species STEME, ECHCG and BROTE. The results are shown in Tables 2a to 2c as the % control when assessed 25 days after application (25 DAA).
In all the trials of Table Tables 2a to 2c Mero® (rapeseed oil methyl ester) was added to the respective spray mixture in an amount corresponding to 1 L/ha for PMP, 1 L/ha for MST, and 2 L/ha for mixtures of PMP+MST.

CCHEC=Cenchrus echinatus = assay: Weed control field trial CCHEC
Source text: as §1, §2, §3, §4, §5, §6, §7, §8, §9, §10, §11, §12

[3] = test system: non-traited soybean (Glycine max, GLXMA); assay: Field selectivity trial soybean; settings: 35 DAA
Source text: as §1, §2, §3
(§13) Phenmedipham and combinations of phenmedipham and mesotrione were applied at varying application rates (Dose Rate) to the crop plants of non-traited soybean (Glycine max, GLXMA) and corn (Zea mays, ZEAMX). The results are shown in Table 5 as the % damage when assessed 35 days after application (DAA), respectively.
(§14) In all the selectivity trials of Table 5 the adjuvant Mero® (rapeseed oil methyl ester) was added to the respective spray mixture in an amount corresponding to 1 L/ha for PMP, 1 L/ha for MST, and 2 L/ha for mixtures of PMP+MST.
(§15) The herbicidal effects observed for the herbicide(s) are indicated in % activity against the respective weed. The % damage (injury) indicated refers to the maximum damage observed.

corn (Zea mays, ZEAMX) = assay: Field selectivity trial corn; settings: 35 DAA
Source text: as §1, §2, §3, §13, §14, §15

ELEIN=Eleusine indica = assay: Weed control field trial ELEIN
Source text: as §1, §2, §3, §4, §5, §6, §7, §8, §9, §10, §11, §12

[4] = test system: IPOAO=Ipomoea aristolochiaefolia; assay: Weed control field trial IPOAO
Source text: as §1, §2, §3, §4, §5, §6, §7, §8, §9, §10, §11, §12

BIDPI=Bidens pilosa = assay: Weed control field trial BIDPI
Source text: as §1, §2, §3, §4, §5, §6, §7, §8, §9, §10, §11, §12

CS(=O)(=O)c1ccc(C(=O)C2C(=O)CCCC2=O)c([N+](=O)[O-])c1 [MST, 2-[4-(methylsulfonyl)-2-nitrobenzoyl]cyclohexane-1,3-dione]
12%: maximum damage GLXMA ([3]; 25 g/ha)
28%: % control ECHCG ([2]; 25 g/ha)
17%: % control BRADC ([1]; 50 g/ha, 21 DAA) | % control CCHEC (CCHEC=Cenchrus echinatus; 50 g/ha, 21 DAA) | % control ELEIN (ELEIN=Eleusine indica; 50 g/ha, 21 DAA) | % control ELEIN (ELEIN=Eleusine indica; 50 g/ha, 35 DAA) | % control IPOAO ([4]; 50 g/ha, 21 DAA)
13%: % control BRADC ([1]; 50 g/ha, 35 DAA)
15%: % control ECHCG ([2]; 12.5 g/ha)
29%: maximum damage GLXMA ([3]; 50 g/ha)
70%: % control ECHCG ([2]; 50 g/ha) | % control ECHCG ([2]; 75 g/ha)
80%: % control BIDPI (BIDPI=Bidens pilosa; 25 g/ha, 21 DAA) | % control BIDPI (BIDPI=Bidens pilosa; 25 g/ha, 35 DAA) | % control BIDPI (BIDPI=Bidens pilosa; 50 g/ha, 21 DAA) | % control BIDPI (BIDPI=Bidens pilosa; 50 g/ha, 35 DAA)
0%: % control BRADC ([1]; 25 g/ha, 21 DAA) | % control BRADC ([1]; 25 g/ha, 35 DAA) | % control CCHEC (CCHEC=Cenchrus echinatus; 25 g/ha, 35 DAA) | % control CCHEC (CCHEC=Cenchrus echinatus; 50 g/ha, 35 DAA) | maximum damage ZEAMX (corn (Zea mays, ZEAMX); 25 g/ha) | maximum damage ZEAMX (corn (Zea mays, ZEAMX); 50 g/ha) | % control ELEIN (ELEIN=Eleusine indica; 25 g/ha, 21 DAA) | % control ELEIN (ELEIN=Eleusine indica; 25 g/ha, 35 DAA) | % control IPOAO ([4]; 25 g/ha, 21 DAA) | % control IPOAO ([4]; 25 g/ha, 35 DAA) | % control IPOAO ([4]; 50 g/ha, 35 DAA)

COC(=O)Nc1cccc(OC(=O)Nc2cccc(C)c2)c1 [PMP, 3-[(methoxyformyl)amino]phenyl (3-methylphenyl)carbamate]
10%: % control ECHCG ([2]; 300 g/ha) | maximum damage GLXMA ([3]; 75 g/ha)
14%: maximum damage GLXMA ([3]; 250 g/ha)
0%: % control BRADC ([1]; 75 g/ha, 21 DAA) | % control BRADC ([1]; 75 g/ha, 35 DAA) | % control BRADC ([1]; 100 g/ha, 21 DAA) | % control BRADC ([1]; 100 g/ha, 35 DAA) | % control BRADC ([1]; 125 g/ha, 21 DAA) | % control BRADC ([1]; 125 g/ha, 35 DAA) | % control BRADC ([1]; 250 g/ha, 21 DAA) | % control BRADC ([1]; 250 g/ha, 35 DAA) | % control ECHCG ([2]; 12.5 g/ha) | % control ECHCG ([2]; 25 g/ha) | % control ECHCG ([2]; 50 g/ha) | % control ECHCG ([2]; 75 g/ha) | % control ECHCG ([2]; 100 g/ha) | % control ECHCG ([2]; 125 g/ha) | % control CCHEC (CCHEC=Cenchrus echinatus; 75 g/ha, 21 DAA) | % control CCHEC (CCHEC=Cenchrus echinatus; 75 g/ha, 35 DAA) | % control CCHEC (CCHEC=Cenchrus echinatus; 100 g/ha, 21 DAA) | % control CCHEC (CCHEC=Cenchrus echinatus; 100 g/ha, 35 DAA) | % control CCHEC (CCHEC=Cenchrus echinatus; 125 g/ha, 21 DAA) | % control CCHEC (CCHEC=Cenchrus echinatus; 125 g/ha, 35 DAA) | % control CCHEC (CCHEC=Cenchrus echinatus; 250 g/ha, 21 DAA) | % control CCHEC (CCHEC=Cenchrus echinatus; 250 g/ha, 35 DAA) | % control ELEIN (ELEIN=Eleusine indica; 75 g/ha, 21 DAA) | % control ELEIN (ELEIN=Eleusine indica; 75 g/ha, 35 DAA) | % control ELEIN (ELEIN=Eleusine indica; 100 g/ha, 21 DAA) | % control ELEIN (ELEIN=Eleusine indica; 100 g/ha, 35 DAA) | % control ELEIN (ELEIN=Eleusine indica; 125 g/ha, 21 DAA) | % control ELEIN (ELEIN=Eleusine indica; 125 g/ha, 35 DAA) | % control ELEIN (ELEIN=Eleusine indica; 250 g/ha, 21 DAA) | % control ELEIN (ELEIN=Eleusine indica; 250 g/ha, 35 DAA) | % control IPOAO ([4]; 75 g/ha, 21 DAA) | % control IPOAO ([4]; 75 g/ha, 35 DAA) | % control IPOAO ([4]; 100 g/ha, 21 DAA) | % control IPOAO ([4]; 100 g/ha, 35 DAA) | % control IPOAO ([4]; 125 g/ha, 21 DAA) | % control IPOAO ([4]; 125 g/ha, 35 DAA) | % control IPOAO ([4]; 250 g/ha, 21 DAA) | % control IPOAO ([4]; 250 g/ha, 35 DAA) | % control BIDPI (BIDPI=Bidens pilosa; 75 g/ha, 21 DAA) | % control BIDPI (BIDPI=Bidens pilosa; 75 g/ha, 35 DAA) | % control BIDPI (BIDPI=Bidens pilosa; 100 g/ha, 21 DAA) | % control BIDPI (BIDPI=Bidens pilosa; 100 g/ha, 35 DAA) | % control BIDPI (BIDPI=Bidens pilosa; 125 g/ha, 21 DAA) | % control BIDPI (BIDPI=Bidens pilosa; 125 g/ha, 35 DAA) | % control BIDPI (BIDPI=Bidens pilosa; 250 g/ha, 21 DAA) | % control BIDPI (BIDPI=Bidens pilosa; 250 g/ha, 35 DAA)
6%: maximum damage ZEAMX (corn (Zea mays, ZEAMX); 75 g/ha) | maximum damage ZEAMX (corn (Zea mays, ZEAMX); 125 g/ha) | maximum damage ZEAMX (corn (Zea mays, ZEAMX); 250 g/ha)
15%: maximum damage GLXMA ([3]; 125 g/ha)
